Results reported in patent publication US10414728B2 (priority 2014, dated 2019).
Counter-ions that a name gives are not always drawn. Like-named read-outs stand apart in the source and are kept apart here.

Key:
human NaV 1.5 = human NaV 1.5 (Homo sapiens, UniProt Q14524); experiment: Electrophysiology, IonWorks Barracuda, NaV channel block in CHO cells; settings: Nav1.5, CHO cells, 5 min exposure, ambient temperature
Description: (§1) Effects on Human NaV 1.1, NaV 1.2, NaV1.3, NaV 1.4, NaV 1.5, NaV 1.6, NaV 1.7 and NaV 1.8/β3 Sodium Channels Expressed in Mammalian Cells
(§2) CHO cells were stably transfected with human ion channel cDNAs. Stable transfectants were selected by expression with the antibiotic-resistance gene(s) incorporated into the expression plasmid(s). Selection pressure was maintained by including selection antibiotics in the culture medium. CHO cells were cultured in Ham's F-12 supplemented with 10% fetal bovine serum, 100 U/mL penicillin G sodium, 100 μg/mL streptomycin sulfate and appropriate selection antibiotics. Before testing, cells in culture dishes were washed twice with Hank's Balanced Salt Solution (HB-PS) and treated with Accutase for approximately 20 minutes. Immediately before use in IonWorks Barracuda™, the cells were washed in HB-PS to remove the Accutase and re-suspended in HB-PS. All experiments were performed at ambient temperature. […] Duration of exposure to each test article concentration was five (5) minutes. Inhibition of NaV channels was measured using a stimulus voltage pattern. The pulse pattern was repeated before (baseline) and for five (5) minutes after compound addition. […]
(§3) where [C] was the concentration of test article, IC50 was the concentration of the test article producing half-maximal inhibition, N was the Hill coefficient, % VC was the percentage of the current run-down (the mean current inhibition at the vehicle control) and % Block was the percentage of ion channel current inhibited at each concentration of a test article. Nonlinear least squares fits were solved with the XLfit add-in for Excel (Microsoft, Redmond, Wash.).

human NaV 1.1 = target: T1, human NaV 1.1 (Homo sapiens, UniProt P35498); experiment: as above; assay type: cell-based; settings: Nav1.1, CHO cells, 5 min exposure, ambient temperature
T1 construct: expressed in transfected cells; host or cells: CHO
Description: as §1, §2, §3

human NaV 1.2 = target: T2, human NaV 1.2 (Homo sapiens, UniProt Q99250); experiment: as above; assay type: cell-based; settings: Nav1.2, CHO cells, 5 min exposure, ambient temperature
T2 construct: expressed in transfected cells; host or cells: CHO
Description: as §1, §2, §3

human NaV 1.4 = target: T3, human NaV 1.4 (Homo sapiens, UniProt P35499); experiment: as above; assay type: cell-based; settings: Nav1.4, CHO cells, 5 min exposure, ambient temperature
T3 construct: expressed in transfected cells; host or cells: CHO
Description: as §1, §2, §3

human NaV 1.6 = target: T4, human NaV 1.6 (Homo sapiens, UniProt Q9UQD0); experiment: as above; assay type: cell-based; settings: Nav1.6, CHO cells, 5 min exposure, ambient temperature
T4 construct: expressed in transfected cells; host or cells: CHO
Description: as §1, §2, §3

human NaV 1.7 = target: T5, human NaV 1.7 (Homo sapiens, UniProt Q15858); experiment: as above; assay type: cell-based; settings: Nav1.7, CHO cells, 5 min exposure, ambient temperature
T5 construct: expressed in transfected cells; host or cells: CHO
Description: as §1, §2, §3

human NaV 1.8/β3 = target: T6, human NaV 1.8/β3 (Homo sapiens, UniProt Q9Y5Y9); experiment: as above; assay type: cell-based; settings: Nav1.8, CHO cells, 5 min exposure, ambient temperature
T6 construct: expressed in transfected cells; host or cells: CHO
Description: as §1, §2, §3

human NaV1.3 = target: T7, human NaV1.3 (Homo sapiens, UniProt Q9NY46); experiment: as above; assay type: cell-based; settings: Nav1.3, CHO cells, 5 min exposure, ambient temperature
T7 construct: expressed in transfected cells; host or cells: CHO
Description: as §1, §2, §3

NaV 1.1 to NaV 1.8 = experiment: Electrophysiology, summary over the NaV panel; assay type: cell-based, human
Description: as §1
CHO cells were stably transfected with human ion channel cDNAs. Stable transfectants were selected by expression with the antibiotic-resistance gene(s) incorporated into the expression plasmid(s). Selection pressure was maintained by including selection antibiotics in the culture medium. CHO cells were cultured in Ham's F-12 supplemented with 10% fetal bovine serum, 100 U/mL penicillin G sodium, 100 μg/mL streptomycin sulfate and appropriate selection antibiotics. Before testing, cells in culture dishes were washed twice with Hank's Balanced Salt Solution (HB-PS) and treated with Accutase for approximately 20 minutes. Immediately before use in IonWorks Barracuda™, the cells were washed in HB-PS to remove the Accutase and re-suspended in HB-PS. All experiments were performed at ambient temperature. […] Duration of exposure to each test article concentration was five (5) minutes. Inhibition of NaV channels was measured using a stimulus voltage pattern. The pulse pattern was repeated before (baseline) and for five (5) minutes after compound addition. Peak current amplitudes were measured for test pulses TP1 (inactivated state inhibition), TP2, TP3 (tonic inhibition) and TP22 (use-dependent inhibition).
as §3

Solubility observation = assay type: physicochemical; settings: DMSO and acetonitrile/water
Description: A solution of methyl biphenyl-4-yl(1,2,5,6-tetrahydropyridin-2-yl)acetate hydrochloride salt (10.0 g, crude) in acetonitrile (40 mL) was charged with Methyl tert.-butyl ether (80 mL) and water (7.0 mL) at room temperature. The reaction mixture was stirred for 10 min at room temperature. The resulted solids were filtered, washed with Methyl tert.-butyl ether (25 mL) and was dried to afford EXAMPLE 1E (Enantiomeric pair consisting of Methyl (2R)-biphenyl-4-yl[(2S)-1,2,5,6-tetrahydropyridin-2-yl]acetate hydrochloride, EXAMPLE 1C, & Methyl (2S)-biphenyl-4-yl[(2R)-1,2,5,6-tetrahydropyridin-2-yl]acetate hydrochloride, EXAMPLE 1D, 3.75 g) as a light brown solid (96.8% HPLC purity, m/z 308 [M+H]+).

[1] = target: T8, Human recombinant serotonin 5-HT2A receptor (Homo sapiens, UniProt P28223); experiment: Serotonin-mediated inositol phosphate (IP1) response in CHO-K1 cells; assay type: cell-based; settings: screened at 1 μM, 30 minutes at 37° C.; for inhibition at 1 µM: CHO-K1, read-out: antagonism: inhibition of 0.3 μM serotonin-induced fluorescence response
T8 construct: expressed in transfected cells; host or cells: CHO-K1
Description: The 5-HT2 receptor class couples preferentially to Gq/G11 to increase hydrolysis of inositol phosphates and elevate cytosolic [Ca^2+]. Human recombinant serotonin 5-HT2A receptor stably expressed in CHO-K1 cells are used. Test compound and/or vehicle is incubated with the cells (5×10^5/ml) in stimulation buffer of IP1 Tb kit (Cisbio Bioassays) for 30 minutes at 37° C. Test compound-induced increase of fluorescence relative to the 10 μM serotonin response indicate possible serotonin 5-HT2A receptor agonist activity.

sodium channel site 2 = experiment: Sodium channel site 2 radioligand binding ([3H]Batrachotoxinin); settings: rat brain membranes, determined in previous studies
[2] = read-out: IC50 TP2 (inactivated state)

T2 sequence (Q99250 whole entry): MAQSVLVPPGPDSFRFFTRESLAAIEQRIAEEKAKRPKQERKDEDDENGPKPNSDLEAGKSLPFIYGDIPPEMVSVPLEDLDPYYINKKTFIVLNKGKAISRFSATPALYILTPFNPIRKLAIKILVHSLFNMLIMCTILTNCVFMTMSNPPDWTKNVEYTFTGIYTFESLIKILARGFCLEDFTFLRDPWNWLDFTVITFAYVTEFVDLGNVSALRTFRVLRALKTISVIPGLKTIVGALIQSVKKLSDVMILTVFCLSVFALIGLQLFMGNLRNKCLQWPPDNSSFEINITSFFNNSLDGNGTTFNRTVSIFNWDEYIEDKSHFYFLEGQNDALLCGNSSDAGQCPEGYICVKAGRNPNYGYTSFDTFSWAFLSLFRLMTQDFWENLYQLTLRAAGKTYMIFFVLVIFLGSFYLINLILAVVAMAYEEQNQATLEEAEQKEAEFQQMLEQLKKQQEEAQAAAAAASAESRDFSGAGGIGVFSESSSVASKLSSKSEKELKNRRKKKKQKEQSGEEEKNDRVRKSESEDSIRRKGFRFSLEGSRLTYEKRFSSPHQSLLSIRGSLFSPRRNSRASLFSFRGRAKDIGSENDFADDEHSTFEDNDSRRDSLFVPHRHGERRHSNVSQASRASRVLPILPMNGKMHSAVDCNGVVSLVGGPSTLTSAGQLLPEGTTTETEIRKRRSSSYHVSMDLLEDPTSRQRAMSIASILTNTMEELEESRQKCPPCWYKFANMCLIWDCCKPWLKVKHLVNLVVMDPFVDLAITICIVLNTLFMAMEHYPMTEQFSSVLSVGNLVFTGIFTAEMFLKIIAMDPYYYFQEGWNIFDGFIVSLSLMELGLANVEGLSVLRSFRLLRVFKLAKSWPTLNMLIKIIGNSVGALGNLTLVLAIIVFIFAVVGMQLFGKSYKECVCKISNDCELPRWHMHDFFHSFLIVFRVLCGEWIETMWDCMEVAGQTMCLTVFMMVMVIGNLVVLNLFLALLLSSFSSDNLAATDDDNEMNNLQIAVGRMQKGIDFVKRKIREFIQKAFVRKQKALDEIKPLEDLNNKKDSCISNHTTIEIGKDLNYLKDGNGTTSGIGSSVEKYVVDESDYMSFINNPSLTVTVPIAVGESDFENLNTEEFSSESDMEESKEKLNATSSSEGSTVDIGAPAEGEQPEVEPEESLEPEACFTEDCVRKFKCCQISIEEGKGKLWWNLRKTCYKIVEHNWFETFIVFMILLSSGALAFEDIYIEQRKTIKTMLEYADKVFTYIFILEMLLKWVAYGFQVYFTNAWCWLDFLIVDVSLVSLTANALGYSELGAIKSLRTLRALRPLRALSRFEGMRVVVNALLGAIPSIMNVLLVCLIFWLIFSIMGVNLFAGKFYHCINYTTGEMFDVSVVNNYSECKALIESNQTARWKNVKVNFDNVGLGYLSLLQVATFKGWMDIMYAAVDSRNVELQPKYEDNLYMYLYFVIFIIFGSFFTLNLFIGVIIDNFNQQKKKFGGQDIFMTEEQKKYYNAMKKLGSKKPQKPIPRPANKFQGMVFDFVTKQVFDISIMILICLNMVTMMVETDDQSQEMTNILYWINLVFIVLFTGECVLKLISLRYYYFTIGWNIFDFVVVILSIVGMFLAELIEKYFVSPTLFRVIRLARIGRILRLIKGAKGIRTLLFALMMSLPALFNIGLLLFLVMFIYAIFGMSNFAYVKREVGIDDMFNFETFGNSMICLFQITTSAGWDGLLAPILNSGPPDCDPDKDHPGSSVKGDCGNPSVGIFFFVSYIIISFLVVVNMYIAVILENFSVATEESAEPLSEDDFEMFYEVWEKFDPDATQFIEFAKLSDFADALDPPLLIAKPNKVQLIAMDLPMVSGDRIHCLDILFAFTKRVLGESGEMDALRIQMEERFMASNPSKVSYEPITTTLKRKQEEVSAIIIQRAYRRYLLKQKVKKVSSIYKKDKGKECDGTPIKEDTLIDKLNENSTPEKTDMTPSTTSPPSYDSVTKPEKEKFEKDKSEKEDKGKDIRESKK
T4 sequence (Q9UQD0 whole entry): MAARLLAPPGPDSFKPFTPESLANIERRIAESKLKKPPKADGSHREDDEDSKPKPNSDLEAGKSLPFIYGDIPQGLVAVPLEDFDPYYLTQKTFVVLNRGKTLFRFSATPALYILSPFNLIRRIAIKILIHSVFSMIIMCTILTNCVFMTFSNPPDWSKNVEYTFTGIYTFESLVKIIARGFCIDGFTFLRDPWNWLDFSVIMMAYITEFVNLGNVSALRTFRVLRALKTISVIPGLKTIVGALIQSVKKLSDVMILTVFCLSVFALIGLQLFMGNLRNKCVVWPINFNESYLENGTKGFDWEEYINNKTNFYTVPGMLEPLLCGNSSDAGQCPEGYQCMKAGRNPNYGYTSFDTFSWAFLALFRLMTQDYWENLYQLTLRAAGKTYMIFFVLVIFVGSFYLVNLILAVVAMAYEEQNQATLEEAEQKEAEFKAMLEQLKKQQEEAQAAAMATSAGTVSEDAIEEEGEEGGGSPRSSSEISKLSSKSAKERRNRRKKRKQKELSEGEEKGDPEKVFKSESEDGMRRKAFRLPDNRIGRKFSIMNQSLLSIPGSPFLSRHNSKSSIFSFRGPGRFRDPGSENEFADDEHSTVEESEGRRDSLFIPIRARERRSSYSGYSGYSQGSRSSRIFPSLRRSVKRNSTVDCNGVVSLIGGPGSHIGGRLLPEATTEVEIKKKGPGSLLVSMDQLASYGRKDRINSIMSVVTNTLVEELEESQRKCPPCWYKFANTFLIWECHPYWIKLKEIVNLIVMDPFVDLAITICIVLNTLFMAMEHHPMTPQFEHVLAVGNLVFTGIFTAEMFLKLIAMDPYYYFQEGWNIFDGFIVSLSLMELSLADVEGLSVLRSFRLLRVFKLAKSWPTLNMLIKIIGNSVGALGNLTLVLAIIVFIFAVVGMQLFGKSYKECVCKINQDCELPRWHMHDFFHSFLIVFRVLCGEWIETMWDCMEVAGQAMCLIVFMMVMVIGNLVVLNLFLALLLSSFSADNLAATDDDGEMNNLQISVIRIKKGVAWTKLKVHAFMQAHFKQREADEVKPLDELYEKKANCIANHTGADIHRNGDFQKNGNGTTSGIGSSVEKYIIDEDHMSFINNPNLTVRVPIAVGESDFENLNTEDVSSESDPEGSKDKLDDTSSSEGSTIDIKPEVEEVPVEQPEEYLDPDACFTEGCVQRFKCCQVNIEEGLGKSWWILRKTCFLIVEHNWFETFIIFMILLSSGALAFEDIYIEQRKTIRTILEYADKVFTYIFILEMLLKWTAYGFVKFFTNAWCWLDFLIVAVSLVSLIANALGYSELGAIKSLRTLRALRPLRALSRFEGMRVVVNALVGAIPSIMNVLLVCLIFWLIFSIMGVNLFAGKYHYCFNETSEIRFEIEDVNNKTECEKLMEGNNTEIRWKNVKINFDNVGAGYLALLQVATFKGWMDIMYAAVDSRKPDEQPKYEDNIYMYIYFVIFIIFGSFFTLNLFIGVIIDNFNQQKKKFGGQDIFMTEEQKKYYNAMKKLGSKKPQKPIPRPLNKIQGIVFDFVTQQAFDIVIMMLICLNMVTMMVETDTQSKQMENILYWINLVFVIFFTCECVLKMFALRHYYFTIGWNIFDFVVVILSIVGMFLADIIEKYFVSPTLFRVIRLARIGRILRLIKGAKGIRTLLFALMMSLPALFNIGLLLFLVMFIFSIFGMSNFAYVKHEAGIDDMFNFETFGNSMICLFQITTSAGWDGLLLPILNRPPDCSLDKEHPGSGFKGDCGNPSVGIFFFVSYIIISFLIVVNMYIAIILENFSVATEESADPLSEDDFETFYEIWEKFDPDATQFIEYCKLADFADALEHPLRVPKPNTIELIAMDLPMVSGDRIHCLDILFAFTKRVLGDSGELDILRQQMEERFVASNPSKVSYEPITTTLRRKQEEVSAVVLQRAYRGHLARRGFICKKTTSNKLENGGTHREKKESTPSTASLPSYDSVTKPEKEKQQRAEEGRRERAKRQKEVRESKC
T8 sequence (P28223 whole entry): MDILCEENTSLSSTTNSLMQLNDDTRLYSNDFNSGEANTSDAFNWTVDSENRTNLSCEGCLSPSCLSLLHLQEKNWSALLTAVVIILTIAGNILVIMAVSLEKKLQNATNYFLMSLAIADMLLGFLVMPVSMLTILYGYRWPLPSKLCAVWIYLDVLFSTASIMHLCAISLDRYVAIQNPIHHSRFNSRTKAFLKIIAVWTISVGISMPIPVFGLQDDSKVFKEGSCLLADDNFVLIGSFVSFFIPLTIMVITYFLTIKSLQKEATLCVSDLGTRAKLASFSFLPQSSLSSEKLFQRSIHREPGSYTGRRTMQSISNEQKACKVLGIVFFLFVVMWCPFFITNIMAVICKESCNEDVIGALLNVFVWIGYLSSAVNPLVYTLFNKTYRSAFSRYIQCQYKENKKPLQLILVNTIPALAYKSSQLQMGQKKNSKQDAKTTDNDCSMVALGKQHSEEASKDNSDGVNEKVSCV

In the case of `COC(=O)[C@H](c1ccc(-c2ccccc2)cc1)[C@@H]1C=CCCN1` (racemic) [EXAMPLE 1E], the IC50 (human NaV 1.5; IC50 TP1 (tonic)) is reported as greater than 30 µM, the IC50 (human NaV 1.5; IC50 TP2 (inactivated state)) is reported as 1.2 µM and the IC50 (human NaV 1.1; IC50 TP1 (tonic)) is reported as greater than 30 µM. It also gave an IC50 (human NaV 1.1; IC50 TP2 (inactivated state)) of 1.5 µM, an IC50 (human NaV 1.2; IC50 TP1 (tonic)) greater than 30 µM and an IC50 (human NaV 1.2; IC50 TP2 (inactivated state)) of 1.5 µM. The IC50 (human NaV 1.4; IC50 TP1 (tonic)) was greater than 30 µM, the IC50 (human NaV 1.4; IC50 TP2 (inactivated state)) was 1.2 µM and the IC50 (human NaV 1.6; IC50 TP1 (tonic)) was greater than 30 µM. For the same compound, the IC50 (human NaV 1.6; IC50 TP2 (inactivated state)) was 1.2 µM, the IC50 (human NaV 1.7; IC50 TP1 (tonic)) was greater than 30 µM and the IC50 (human NaV 1.7; IC50 TP2 (inactivated state)) was 1.3 µM. For the same compound, the IC50 (human NaV 1.8/β3; IC50 TP1 (tonic)) was greater than 30 µM, the IC50 (human NaV 1.8/β3; IC50 TP2 (inactivated state)) was 1.1 µM and the IC50 (human NaV1.3; IC50 TP1 (tonic)) was greater than 30 µM. The IC50 (human NaV1.3; IC50 TP2 (inactivated state)) was 1.3 µM, the “inhibition to NaV 1.1 to NaV 1.8” value (NaV 1.1 to NaV 1.8) was “showed inhibition” and the solubility (Solubility observation) was “soluble in DMSO and acetonitrile/water”.

For `COC(=O)C(c1ccc(-c2ccccc2)cc1)C1C=CCCN1.Cl` (stereo not shown) [EXAMPLE 1, methyl biphenyl-4-yl(1,2,5,6-tetrahydropyridin-2-yl)acetate hydrochloride salt], the “agonist activity (increase of fluorescence relative to the 10 μM serotonin response)” value [1] was “no agonist activity”.

Work on `COC(=O)[C@H](c1ccc(-c2ccccc2)cc1)[C@@H]1C=CCCN1.Cl` [EXAMPLE 1C, Methyl (2R)-biphenyl-4-yl[(2S)-1,2,5,6-tetrahydropyridin-2-yl]acetate hydrochloride] yielded an IC50 (human NaV 1.5; IC50 TP1 (tonic)) greater than 30 µM, an IC50 (human NaV 1.5; IC50 TP2 (inactivated state)) of 1.5 µM and an IC50 (human NaV 1.1; IC50 TP1 (tonic)) greater than 30 µM. For the same compound, the IC50 (human NaV 1.1; IC50 TP2 (inactivated state)) was 2.1 µM, the IC50 (human NaV 1.2; IC50 TP1 (tonic)) was greater than 30 µM and the IC50 (human NaV 1.2; IC50 TP2 (inactivated state)) was 3.1 µM. It also gave an IC50 (human NaV 1.4; IC50 TP1 (tonic)) greater than 30 µM, an IC50 (human NaV 1.4; IC50 TP2 (inactivated state)) of 1.5 µM and an IC50 (human NaV 1.6; IC50 TP1 (tonic)) greater than 30 µM. It also gave an IC50 (human NaV 1.6; IC50 TP2 (inactivated state)) of 2.2 µM, an IC50 (human NaV 1.7; IC50 TP1 (tonic)) greater than 30 µM and an IC50 (human NaV 1.7; IC50 TP2 (inactivated state)) of 2.5 µM. For the same compound, the IC50 (human NaV 1.8/β3; IC50 TP1 (tonic)) was greater than 30 µM, the IC50 (human NaV 1.8/β3; IC50 TP2 (inactivated state)) was 1.9 µM and the IC50 (human NaV1.3; IC50 TP1 (tonic)) was greater than 30 µM. The IC50 (human NaV1.3; IC50 TP2 (inactivated state)) was 2.2 µM, the “inhibition to NaV 1.1 to NaV 1.8” value (NaV 1.1 to NaV 1.8) was “showed inhibition” and the inhibition at 1 µM [1] was 30%. For the same compound, the “agonist activity (increase of fluorescence relative to the 10 μM serotonin response)” value [1] was “no agonist activity”.

With `COC(=O)[C@@H](c1ccc(-c2ccccc2)cc1)[C@H]1C=CCCN1` [EXAMPLE 1D, Methyl (2S)-biphenyl-4-yl[(2R)-1,2,5,6-tetrahydropyridin-2-yl]acetate hydrochloride] the IC50 (human NaV 1.5; IC50 TP1 (tonic)) was greater than 30 µM, the IC50 (human NaV 1.5; IC50 TP2 (inactivated state)) was 2 µM and the IC50 (human NaV 1.1; IC50 TP1 (tonic)) was greater than 30 µM. For the same compound, the IC50 (human NaV 1.1; IC50 TP2 (inactivated state)) was 2.2 µM, the IC50 (human NaV 1.2; IC50 TP1 (tonic)) was greater than 30 µM and the IC50 (human NaV 1.2; IC50 TP2 (inactivated state)) was 2.1 µM. It also gave an IC50 (human NaV 1.4; IC50 TP1 (tonic)) greater than 30 µM, an IC50 (human NaV 1.4; IC50 TP2 (inactivated state)) of 1.3 µM and an IC50 (human NaV 1.6; IC50 TP1 (tonic)) greater than 30 µM. The IC50 (human NaV 1.6; IC50 TP2 (inactivated state)) was 2 µM, the IC50 (human NaV 1.7; IC50 TP1 (tonic)) was greater than 30 µM and the IC50 (human NaV 1.7; IC50 TP2 (inactivated state)) was 2 µM. The IC50 (human NaV 1.8/β3; IC50 TP1 (tonic)) was greater than 30 µM, the IC50 (human NaV 1.8/β3; IC50 TP2 (inactivated state)) was 1.8 µM and the IC50 (human NaV1.3; IC50 TP1 (tonic)) was greater than 30 µM. The IC50 (human NaV1.3; IC50 TP2 (inactivated state)) was 2 µM, the “inhibition to NaV 1.1 to NaV 1.8” value (NaV 1.1 to NaV 1.8) was “showed inhibition” and the inhibition at 1 µM [1] was 37%. The “agonist activity (increase of fluorescence relative to the 10 μM serotonin response)” value [1] was “no agonist activity”.

Compound `CCN(CC)CC(=O)Nc1c(C)cccc1C` [Lidocaine, reference compound] has an IC50 (human NaV 1.1; read-out: IC50 TP1 (tonic)) of 543 µM, an IC50 (human NaV 1.1; [2]) of 465 µM and an IC50 (human NaV 1.4; read-out: IC50 TP1 (tonic)) of 389 µM. For the same compound, the IC50 (human NaV 1.4; [2]) was 162 µM, the IC50 (human NaV 1.6; read-out: IC50 TP1 (tonic)) was 423 µM and the IC50 (human NaV 1.6; [2]) was 188 µM. For the same compound, the IC50 (human NaV 1.7; read-out: IC50 TP1 (tonic)) was 382 µM, the IC50 (human NaV 1.7; [2]) was 154 µM and the IC50 (human NaV 1.8/β3; read-out: IC50 TP1 (tonic)) was 280 µM. The IC50 (human NaV 1.8/β3; [2]) was 51.4 µM, the IC50 (human NaV1.3; read-out: IC50 TP1 (tonic)) was 555 µM and the IC50 (human NaV1.3; [2]) was 165 µM.

Work on [3H]Batrachotoxinin yielded a Kd (sodium channel site 2) of 0.052 µM.
